Among the test systems are NCI-H460; OVCAR-8; SF-539; SW-620; KM-20L2; CCRF-CEM; OVCAR-3; A498; HOP-18; HCC 2998; SNB-75; KM12; UACC-62; A549; DMS-114; OVCAR-5; EKVX; HL-60; DLD-1; DU-145.
What all share (assay): NCI tumour cell line growth inhibition, 48 h

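Cells were grown in 96-well plates and exposed to each compound for 48 hours at five concentrations; endpoints were interpolated linearly between bracketing concentrations, or set to the highest concentration if not reached. Abbreviation: GI50, concentration required for 50% inhibition of growth.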 Calls of active or inactive are those of the source. Rule as the data show it: active = GI50 up to about 1.1 µM and inactive = higher. A value given as a limit tells only on which side of the number the result lay.

On to `Cc1cc2c(cc1C)[n+]([O-])c(C(=O)CC(=O)C(=O)Nc1c(C(C)C)cccc1C(C)C)c(C)[n+]2[O-]`, for which the GI50 in the test on NCI-H460, with OVCAR-8, in the test with SF-539, in the test on SW-620, in the test on KM-20L2 and in the test with CCRF-CEM was > 100 µM (inactive) throughout. The GI50 in the test on OVCAR-3, in the test on A498, with HOP-18, in the test on HCC 2998, in the test on SNB-75 and in the test on KM12 was > 100 µM (inactive) each time. Also, the GI50 in the test on UACC-62, with A549, with DMS-114, in the test with OVCAR-5 and with EKVX was > 100 µM (inactive) in each case.
With `CCN(CC)CCCC(C)Nc1ccnc2ccc3nn(C)nc3c12` (stereo not drawn), the GI50 in the test on NCI-H460 is 32.8 µM (inactive); with OVCAR-8, 41.4 µM (inactive); in the test with SF-539, 37.8 µM (inactive); in the test with SW-620 it was 22.3 µM (inactive); in the test with KM-20L2, 33 µM (inactive); in the test with CCRF-CEM, 25.1 µM (inactive). Further, the GI50 with HL-60 was 30.1 µM (inactive); in the test on A498 it was 37 µM (inactive); in the test with HOP-18 it was > 100 µM (inactive); in the test on HCC 2998, 40.2 µM (inactive); with SNB-75, > 100 µM (inactive); with KM12 it was 42.3 µM (inactive). Further, the GI50 in the test on UACC-62 is > 100 µM (inactive); in the test with A549, 47.9 µM (inactive); in the test on OVCAR-5, > 100 µM (inactive); with EKVX, > 100 µM (inactive); in the test with DLD-1, 55 µM (inactive).
On to `CC(=O)OC1C(COC(N)=O)OC(n2c(-c3ccc(C)cc3)cc(-c3ccccc3)c(C#N)c2=O)C(OC(C)=O)C1OC(C)=O` (stereo not drawn), for which the GI50 with NCI-H460 was 96.2 µM (inactive); in the test on OVCAR-8, > 100 µM (inactive); with SF-539 it was > 100 µM (inactive); with SW-620, > 100 µM (inactive); in the test with KM-20L2, > 100 µM (inactive); in the test with CCRF-CEM, > 100 µM (inactive). Further, the GI50 with OVCAR-3 is > 100 µM (inactive); in the test on A498, > 100 µM (inactive); in the test with HOP-18, > 100 µM (inactive); with HCC 2998, 53.7 µM (inactive); in the test with SNB-75 it was 44 µM (inactive); in the test on KM12, > 100 µM (inactive). Moreover, the GI50 in the test on UACC-62, in the test on A549, in the test with OVCAR-5, in the test on EKVX and in the test with DLD-1 was > 100 µM (inactive) throughout.
For `O=C(Cc1ccccc1)N/N=C(/c1nc2ccc([N+](=O)[O-])cc2nc1O)C(O)c1ccco1` (stereo not drawn), the GI50 in the test on NCI-H460 is > 100 µM (inactive); with OVCAR-8, > 100 µM (inactive); with SF-539, > 100 µM (inactive); in the test with SW-620, > 100 µM (inactive); in the test with CCRF-CEM, 43.7 µM (inactive); with HL-60, 31.8 µM (inactive). Moreover, the GI50 in the test with A498, with HOP-18, in the test on HCC 2998, in the test on SNB-75, with KM12 and in the test with UACC-62 was > 100 µM (inactive) each time. In addition, the GI50 in the test on A549 is > 100 µM (inactive); with DMS-114 it was 46.8 µM (inactive); with OVCAR-5 it was > 100 µM (inactive); in the test with EKVX, > 100 µM (inactive); with DLD-1 it was > 100 µM (inactive).
As to `C=CCCCCCCCCCP(=O)(c1ccccc1)c1ccc2c(c1)OCCOCCOCCOCCO2` (stereo not drawn), the GI50 with NCI-H460 is 13.2 µM (inactive); with OVCAR-8 it was 15.9 µM (inactive); with SF-539 it was 17.3 µM (inactive); in the test on SW-620, 16 µM (inactive); in the test on KM-20L2, 14.1 µM (inactive); in the test with CCRF-CEM, 16.5 µM (inactive). The GI50 in the test with OVCAR-3 is 7.08 µM (inactive); in the test with HL-60, 5.18 µM (inactive); in the test with A498, 14.2 µM (inactive); in the test with HOP-18, 16.3 µM (inactive); in the test with HCC 2998, 17.3 µM (inactive); with SNB-75, 18.5 µM (inactive). Also, the GI50 in the test with KM12 is 12.8 µM (inactive); with UACC-62 it was 15.7 µM (inactive); in the test with A549, 14.6 µM (inactive); with OVCAR-5, 17.4 µM (inactive); with EKVX, 19.6 µM (inactive); in the test on DLD-1, 13.6 µM (inactive).
As to `COC(=O)C12C(=O)O[C@H](C)C1(O)C(C)C(=O)N2C` (stereo partly drawn), the GI50 in the test on OVCAR-8, with SF-539, in the test on OVCAR-3, with HOP-18, in the test with HCC 2998 and in the test with KM12 was > 100 µM (inactive) throughout. Moreover, the GI50 in the test with UACC-62, with DMS-114, in the test with OVCAR-5, in the test on EKVX and with DLD-1 was > 100 µM (inactive) each time.
Turning to `O=C(Cn1ccnc1[N+](=O)[O-])NCc1ccc(F)cc1`, the GI50 with NCI-H460, with OVCAR-8, with SF-539, in the test on SW-620, in the test with KM-20L2 and in the test on CCRF-CEM was > 100 µM (inactive) in each case. For the same compound, the GI50 is 33.5 µM (inactive) in the test on OVCAR-3; > 100 µM (inactive) with HL-60; > 100 µM (inactive) in the test with A498; > 100 µM (inactive) in the test on HOP-18; 68.9 µM (inactive) in the test with SNB-75; > 100 µM (inactive) in the test on KM12. The GI50 with UACC-62, in the test on A549, in the test on DMS-114, with OVCAR-5 and in the test on EKVX was > 100 µM (inactive) each time.
As to `Cc1cc(NC(=O)NC(=O)c2ccccc2NC(=O)CN)ccc1Oc1ncc(Br)cn1`, the GI50 in the test on NCI-H460 was 0.743 µM (active); in the test on OVCAR-8, 1.17 µM (inactive); with SW-620 it was 0.618 µM (active); in the test on KM-20L2, 0.676 µM (active); in the test on CCRF-CEM it was 0.403 µM (active); in the test on OVCAR-3, 0.217 µM (active). The GI50 in the test with A498 was 0.454 µM (active); in the test with HCC 2998, 5.21 µM (inactive); with SNB-75, 0.139 µM (active); in the test on KM12 it was 0.401 µM (active); in the test on DU-145, 0.402 µM (active); in the test with UACC-62, 0.207 µM (active). In addition, the GI50 in the test on A549 is 0.879 µM (active); in the test with DMS-114 it was 0.191 µM (active); in the test on OVCAR-5, 12.3 µM (inactive); in the test on EKVX, 1.52 µM (inactive); with DLD-1, 1.4 µM (inactive).
`OC12c3ccccc3C1CCCCC2N1CCCC1` (stereo not drawn): the GI50 in the test on NCI-H460, in the test with OVCAR-8, in the test with SW-620, with KM-20L2, with CCRF-CEM and in the test on HL-60 was > 100 µM (inactive) each time. Besides, the GI50 in the test on HOP-18, in the test with SNB-75, in the test with KM12, in the test with UACC-62, in the test on A549 and in the test on DMS-114 was > 100 µM (inactive) throughout. Besides, in the test with EKVX, the GI50 is > 100 µM (inactive).
Regarding `Cc1cc(N(CCC#N)CCC#N)ccc1/C=C(/NC(=O)/C=C/c1ccccc1)C(N)=O`, the GI50 in the test with NCI-H460, in the test with OVCAR-8, with SF-539, with SW-620, in the test on KM-20L2 and with CCRF-CEM was > 100 µM (inactive) each time. The GI50 in the test on OVCAR-3, with HL-60, in the test with A498, in the test with HCC 2998, in the test with SNB-75 and with KM12 was > 100 µM (inactive) each time. Moreover, the GI50 in the test with UACC-62, in the test with A549, with DMS-114, in the test with OVCAR-5, in the test on EKVX and with DLD-1 was > 100 µM (inactive) in each case.
On to `CC1C(O)=C(O)c2ccccc2N1O` (stereo not drawn), for which the GI50 with NCI-H460 is > 100 µM (inactive); in the test with OVCAR-8, > 100 µM (inactive); in the test with SF-539, > 100 µM (inactive); in the test with SW-620, 98.9 µM (inactive); with KM-20L2 it was > 100 µM (inactive); in the test on CCRF-CEM, 47.3 µM (inactive). Moreover, the GI50 with OVCAR-3 is > 100 µM (inactive); with HL-60 it was 44.2 µM (inactive); with A498, > 100 µM (inactive); with HOP-18, 93.8 µM (inactive); in the test with HCC 2998, > 100 µM (inactive); in the test on SNB-75 it was > 100 µM (inactive). Moreover, the GI50 with KM12, in the test with UACC-62, with A549, in the test on OVCAR-5, in the test with EKVX and with DLD-1 was > 100 µM (inactive) throughout.
Consider `Cn1c2c(c3ccccc31)C1CCCCC1C1C(=O)NC(=O)C21` (stereo not drawn), for which the GI50 with NCI-H460 was 34.8 µM (inactive); in the test with OVCAR-8, 66.2 µM (inactive); in the test on SF-539, 80.7 µM (inactive); with SW-620, 52 µM (inactive); with CCRF-CEM, 36.6 µM (inactive); in the test on OVCAR-3 it was 17 µM (inactive). Moreover, the GI50 with HL-60 was 26.6 µM (inactive); with A498, 22.5 µM (inactive); with HOP-18 it was 33.4 µM (inactive); in the test on HCC 2998, 52.2 µM (inactive); in the test on SNB-75, 33.1 µM (inactive); in the test on KM12, 54.3 µM (inactive). Also, the GI50 in the test on UACC-62 is > 100 µM (inactive); with A549, 43.3 µM (inactive); in the test with DMS-114, 50.4 µM (inactive); in the test with OVCAR-5, > 100 µM (inactive); in the test on EKVX it was 32.8 µM (inactive); in the test with DLD-1, 51.3 µM (inactive).
